Test results published in patent US20260314597A1, “A NOVEL APPROACH TO INTERFERE IN THE PHENYLPROPANOID BIOSYNTHETIC PATHWAY TO REDUCE PINK-RIB DISORDER IN FRESH LETTUCE” (University of Florida Research Foundation, Inc., priority 2022, published 2026).
Entries after “also recorded” stand apart in the source; their conditions may differ.

Experiments:
fresh lettuce midribs = conditions: literature treatments; cited from earlier work
PPO = conditions: role: substrate; lettuce tissues; cited from earlier work
[1] = naringenin; in vitro for lettuce; cited from earlier work
PAL = conditions: naringenin; cited from earlier work
[2] = tested on: iceberg and Romaine lettuce midribs; test: Visual (subjective) pink rib development in wounded, immersed lettuce midribs stored at 5° C.; assay type: in vivo; conditions: for reduction of pink rib severity: naringenin (1.8 mM) and serotonin, reason for not imaging
Procedure: Six preliminary experiments were performed to determine treatment conditions for the three final experiments reported here. It was determined that the method developed by Cantwell (2016) induced pink rib discoloration in lettuce midribs during storage at 5° C. via mimicking mechanical damage and was, therefore, selected for use in all preliminary and final tests. […] Concentrations evaluated were: L-cysteine (0.4, 0.8, 2.1, 4.1, 8.3 mM), naringenin (0.2, 0.4, 0.9, 1.8, 3.7 mM), serotonin (2.8, 5.7 mM), and melatonin (0.2, 0.4, 1.1, 2.2, 4.3 mM) (data not presented). […] Therefore, this study employed the one or two concentrations for each compound with the greatest potential efficacy in three independent tests, Test 1 to 3 (Table 1).
For Test 1, the evaluations for pink rib development, protein quantification, and enzyme activity were conducted with Romaine and iceberg lettuce heads (36 heads per type; cultivars unknown) purchased (February 2020) upon arrival at a local grocery store in Gainesville, FL, and immediately transported to the Postharvest Horticulture Laboratory at the University of Florida in Gainesville, FL. For Test 2, metabolite extraction and detection were conducted with commercially grown, harvested, and cooled Romaine (‘Tall Guzmaine’) and iceberg (‘Chosen’) lettuce (December 2020) grown in Belle Glade, FL. For Test 3, untargeted metabolomics was performed using commercially grown, harvested, and cooled Romaine (‘Manatee’) lettuce grown in Belle Glade, FL (April 2021). To keep the lettuce head samples cool while preventing freeze damage during transport, a 3- to 6-inch layer of crushed ice was placed on the bottom of each 114-L cooler. A piece of waxed, corrugated fiberboard was placed on top of the ice prior to packing with the lettuce samples for transport the same day to the Postharvest Horticulture Laboratory in Gainesville (approximately 4 h distant).
In all tests, experimental setup began immediately upon arrival to the laboratory. 90 outer leaves were randomly selected from 18 to 22 lettuce heads that met commercial and damage-free quality standards. A midrib segment (12.5 cm) was excised from the center of each leaf and excess leaf blade tissue was trimmed parallel to the midrib. This procedure was adapted from the wounding procedure of Cantwell (2016). Each midrib was then partially sliced transversally at 1.3-cm increments along the midrib. Midribs (n=15) were immediately immersed for 30 s in one of five treatment solutions: deionized water (wounded control), L-cysteine (4.1 mM), naringenin (1.8 mM) with 20% dimethyl sulfoxide (DMSO), serotonin (2.8 or 5.7 mM) or melatonin (4.3 mM) with 0.50% DMSO. Immediately following immersion, the midribs for each treatment were patted dry using paper towels and placed (n=5) in a breathable, high-density polyethylene bag (n=3) (Narrow Profile Produce Bags [14×18 inches] Model No. S-19156, Uline®, Pleasant Prairie, WI). Unwounded control midribs were stored in the same manner. To allow for direct comparison, each cut site on each midrib was assigned an initial discoloration value on day 1 based on the coloration of the rib. Samples were stored at 5° C. with 95-98% relative humidity (RH) for 5 d, simulating commercial storage.
All chemicals were of laboratory or reagent grade from Alfa Aesar (Thermo Fisher Scientific, Ward Hill, MA, USA) or Phyto Technology Laboratories (Shawnee Mission, KS, USA). L-cysteine (4.1 mM) solution was prepared by dissolving […] in 100 ml deionized water. Naringenin (1.8 mM) solution was prepared by dissolving […] in 20 mL of DMSO and diluting to a 100 mL volume with deionized water. A stock solution of serotonin (5.7 mM) was prepared by dissolving 100 mg of serotonin in 100 ml of deionized water; a second solution of serotonin (2.8 mM) was prepared by diluting the stock solution two-fold with deionized water. […]

apple and pear discs = conditions: serotonin 1 mM, 4° C., cited from earlier work

Structure (SMILES): CC1=CC1 [1-methylcyclopropene]
- effectiveness in reducing pink rib discoloration (fresh lettuce midribs): slightly effective or completely ineffective

Structure (SMILES): CCCCCCc1ccc(O)cc1O [4-hexylresorcinol]
- effectiveness in reducing pink rib discoloration (fresh lettuce midribs): slightly effective or completely ineffective

Structure (SMILES): [Cl-].[Na+] [NaCl]
- effectiveness in reducing pink rib discoloration (fresh lettuce midribs): slightly effective or completely ineffective

Structure (SMILES): O=C(/C=C/c1ccc(O)c(O)c1)O[C@@H]1C[C@](O)(C(=O)O)C[C@@H](O)[C@H]1O [chlorogenic acid]
- specificity to PPO (PPO): greatest specificity to PPO

Structure (SMILES): O=C(O)CC(O)(CC(=O)O)C(=O)O [citric acid]
- effectiveness in reducing pink rib discoloration (fresh lettuce midribs): slightly effective or completely ineffective

Structure (SMILES): C=C [ethylene]
- effectiveness in reducing pink rib discoloration (fresh lettuce midribs): slightly effective or completely ineffective

Structure (SMILES): O=C(O)CN(CCN(CC(=O)O)CC(=O)O)CC(=O)O [ethylenediaminetetracetic acid (EDTA), ethylenediaminetetracetic acid]
- effectiveness in reducing pink rib discoloration (fresh lettuce midribs): slightly effective or completely ineffective

Structure (SMILES): N[C@@H](CCC(=O)N[C@@H](CS)C(=O)NCC(=O)O)C(=O)O [glutathione]
- effectiveness in reducing pink rib discoloration (fresh lettuce midribs): slightly effective or completely ineffective

Structure (SMILES): O=C1C[C@@H](c2ccc(O)cc2)Oc2cc(O)cc(O)c21 [naringenin]
- antioxidant capacity (FRAP) [1]: increase in antioxidant capacity
- PAL activity and subsequent development of phenylpropanoids (PAL): represses PAL activity and subsequent development of phenylpropanoids
- pink rib severity (visual rating) ([2]; iceberg, naringenin 1.8 mM, 5 d at 5° C.): moderately severe (4=moderately severe)
- pink rib severity (visual rating) ([2]; iceberg, naringenin immersion up to 3.7 mM, 5 d at 5° C.): moderately severe (4=moderately severe)
- reduction of pink rib severity [2]: unsuccessful reduction of pink rib severity; also recorded: equally unsuccessful
- effect on pink rib ([2]; naringenin up to 3.7 mM, 5 d at 5° C.): did not successfully reduce pink rib

Structure (SMILES): O=C(O)c1ccc(O)cc1 [p-hydroxybenzoic acid]
- effectiveness in reducing pink rib discoloration (fresh lettuce midribs): slightly effective or completely ineffective

Structure (SMILES): NCCc1c[nH]c2ccc(O)cc12 [serotonin]
- pink rib severity (visual rating) ([2]; Romaine, serotonin 2.8 or 5.7 mM, 5 d at 5° C.): moderately severe (4=moderately severe)
- pink rib severity (visual rating) ([2]; iceberg, serotonin 2.8 or 5.7 mM, 5 d at 5° C.): moderate (3=moderate)
- reduction of pink rib severity [2]: unsuccessful reduction of pink rib severity
- effect on pink rib development ([2]; serotonin, iceberg and Romaine, 5 d at 5° C.): did not reduce pink rib development in either lettuce type
- extension of bright appearance (apple and pear discs; 30-min submersion): up to 6 months
- browning inhibition compared with ascorbic acid (apple and pear discs; 30 min): more effective than ascorbic acid
- duration of browning inhibition (apple and pear discs; 30 min): up to 24 h
